What was measured:
Calu-6 = assay: Tumor xenograft growth inhibition, Calu-6 (lung); format: in vivo, human
Source text: The ability of one of the compounds of the present invention, leflunomide (Compound 40), to inhibit ovarian, melanoma, prostate, lung and mammary tumor cell lines established as SC xenografts was examined. […]
(§1) The tumor cells were implanted subcutaneously into the indicated strains of mice. Treatment was initiated on day 1 post implantation unless otherwise indicated (e.g. treatment of the SCID mouse related to the A375 melanoma cell line began on Day 9). Eight (8) to ten (10) mice comprised each test group.
(§2) Animals. Female athymic mice (BALB/c, nu/nu), BALB/c mice, Wistar rats and Fisher 344 rats were obtained from Simonsen Laboratories (Gilroy, Calif.). Female A/I mice were obtained from Jackson Laboratory (Bar Harbor, Me.). DA rats were obtained from B&K Universal, Inc. (Fremont, Calif.). Athymic R/Nu rats, DBA/2N mice, and BALB/c mice were obtained from Harlan Sprague Dawley (Indianapolis, Ind.). Female C57BL/6 mice were obtained from Taconic (Germantown, N.Y.). All animals were maintained under clean-room conditions in Micro-isolator cages with Alpha-dri bedding. They received sterile rodent chow and water ad libitum.
(§3) Subcutaneous Xenograft Model. Cell lines were grown in appropriate medium as described (See Section 6). Cells were harvested at or near confluency with 0.05% Trypsin-EDTA and pelleted at 450×g for 10 min. Pellets were resuspended in sterile PBS or media (without FBS) to a suitable concentration indicated in the Figure legends and the cells were implanted into the hindflank of mice. Tumor growth was measured over 3 to 6 weeks using venier calipers tumor volumes were calculated as a product of length x width x height unless otherwise indicated. P values were calculated using the Students' t-test. su101 in 50-100 uL excipient (dimethylsulfoxide, PBTE, PBTE6C:D5W, or PBTE:D5W) was delivered by IP injection at concentrations indicated in the Figure legends.

FLK-1 receptor = target: T1, FLK-1 receptor (Mus musculus, UniProt P35918); assay: ELISA assay to measure kinase activity of FLK-1 receptor in FLK-1/NIH cells; format: cell-based, murine
T1 construct: expressed in transfected cells; host or cells: NIH3T3C7#3 cells (FLK-1 infected NIH3T3)
T1 sequence (P35918 20-1345): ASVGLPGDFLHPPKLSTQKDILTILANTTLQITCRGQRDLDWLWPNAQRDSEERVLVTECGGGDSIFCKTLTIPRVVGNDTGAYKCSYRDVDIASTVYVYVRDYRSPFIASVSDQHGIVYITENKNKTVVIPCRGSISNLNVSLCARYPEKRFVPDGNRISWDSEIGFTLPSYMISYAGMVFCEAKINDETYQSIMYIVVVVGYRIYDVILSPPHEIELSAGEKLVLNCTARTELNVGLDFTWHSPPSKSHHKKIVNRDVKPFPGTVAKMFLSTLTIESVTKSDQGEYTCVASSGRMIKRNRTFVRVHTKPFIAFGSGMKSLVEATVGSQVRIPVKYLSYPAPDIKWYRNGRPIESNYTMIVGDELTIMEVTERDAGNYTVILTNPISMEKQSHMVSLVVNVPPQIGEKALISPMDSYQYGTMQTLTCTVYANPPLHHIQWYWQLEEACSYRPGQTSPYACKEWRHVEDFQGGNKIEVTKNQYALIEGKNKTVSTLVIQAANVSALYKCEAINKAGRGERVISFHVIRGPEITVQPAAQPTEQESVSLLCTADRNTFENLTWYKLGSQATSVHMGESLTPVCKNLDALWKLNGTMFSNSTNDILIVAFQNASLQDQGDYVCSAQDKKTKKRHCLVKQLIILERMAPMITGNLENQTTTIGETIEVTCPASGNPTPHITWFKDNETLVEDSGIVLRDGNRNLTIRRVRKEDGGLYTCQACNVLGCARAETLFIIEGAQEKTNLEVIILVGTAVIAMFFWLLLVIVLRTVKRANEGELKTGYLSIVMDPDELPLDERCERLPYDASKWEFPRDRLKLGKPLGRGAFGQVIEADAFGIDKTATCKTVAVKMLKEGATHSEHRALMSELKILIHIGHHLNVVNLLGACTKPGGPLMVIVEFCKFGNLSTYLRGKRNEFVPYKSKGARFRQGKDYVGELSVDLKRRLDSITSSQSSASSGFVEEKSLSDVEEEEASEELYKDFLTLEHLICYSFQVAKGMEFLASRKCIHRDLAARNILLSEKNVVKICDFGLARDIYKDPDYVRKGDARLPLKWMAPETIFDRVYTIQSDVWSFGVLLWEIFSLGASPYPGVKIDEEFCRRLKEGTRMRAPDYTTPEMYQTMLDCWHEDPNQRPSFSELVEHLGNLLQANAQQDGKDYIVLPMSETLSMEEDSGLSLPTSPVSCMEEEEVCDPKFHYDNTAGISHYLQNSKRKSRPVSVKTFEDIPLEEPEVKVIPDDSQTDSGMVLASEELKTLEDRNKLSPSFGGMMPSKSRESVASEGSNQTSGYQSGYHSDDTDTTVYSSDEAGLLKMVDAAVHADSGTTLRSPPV
Method: ELISA Assay To Measure Kinase Activity Of FLK-1 Receptor In FLK-1/NIH Cells
An ELISA assay was conducted to measure the kinase activity of the FLK-1 receptor and more specifically, the inhibition or activiation of protein tyrosine kinase activity on the FLK-1 receptor.
k. NIH3T3C7#3 Cells (FLK-1 infected cells);
Protocol. The following protocol was used to conduct the ELISA Assay:
1. Coat Corning 96-well elisa plates with 1.0 ug per well Cappel Anti-rabbit IgG antibody in 0.1M Na2CO3 pH 9.6. Bring final volume to 150 ul per well. Coat plates overnight at 4° C. Plates can be kept up to two weeks when stored at 4° C.
2. Grow cells in 30 ml of Growth media 9DMEM. 2.0 mM L-Glutamine, 10% FBS) until confluent in 150 cm tissue culture dishes at 37° C., 5% CO2.
3. Harvest cells by tyrpsination and seed in Corning 25850 polystyrene 96-well roundbottom cell plates, 25.000 cells/well in 200 uL of growth media.
4. Grow cells at least one day at 37° C., 5% CO2.
5. Wash cells with D-PBS 1X.
6. Add 200 ul/well of starvation media (DMEM, 2.0 mM l-Glutamine, 0.1% FBS). Incubate overnight at 37° C., 5% CO2.
7. Dilute Compounds/Extracts 1:20 in polyproplyene 96 well plates using starvation media. Dilute dimethylsulfoxide 1:20 for use in control wells.
8. Remove starvation media from 96 well cell culture plates and add 162 ul of fresh starvation media to each well.
9. Add 18 ul of 1:20 diluted Compound/Extract dilution (from step #7) to each well plus the 1:20 dimethylsulfoxide dilution to the control wells (+/-VEGF), for a final dilution of 1:200 after cell stimulation. Final dimethylsulfoxide is 0.5%. Incubate the plate at 37° C., 5% CO2 for two hours.
10. Remove unbound antibody from Elisa plates by inverting plate to remove liquid. Wash 3 times with TBSW+0.5% Ethanolamine, pH 7.0. Pat the plate on a paper towel to remove excess liquid and bubbles.
11. Block plates with TBSW+0.5% Ethanolamine, pH 7.0. 150 ul per well. Incubate plate thirty minutes while shaking on a microtiter plate shaker.
12. Wash plate 3 times as described in step 10.
13. Add 0.5 ug/well affinity purified anti-flk-1 polyclonal rabbit antiserum. Bring final volume to 150 ul/well with TBSW+0.5k Ethanolamine pH 7.0. Incubate plate for thirty minutes while shaking.
14. Add 180 μl starvation medium to the cells and stimulate cells with 20 ul/well 10.0 mM Sodium Ortho Vanadate and 500 ng/ml VEGF (resulting in a final concentration of 1.0 mM Sodium Ortho Vanadate and 50 ng/ml VEGF per well) for eight minutes at 37° C., 5% CO2. Negative control wells receive only starvation medium.
15. After eight minutes, media are removed from the cells and washed one time with 200 ul/well PBS.
16. Lyse cells in 150 ul/well HNTG while shaking at room temperature for five minutes. HNTG formulation includes sodium ortho vanadate, sodium pyro phosphate and EDTA.
17. Wash Elisa plate three times as described in step 10.
18. Transfer cell lysates from the cell plate to elisa plate and incubate while shaking for two hours. To transfer cell lysate pipette up and down while scrapping the wells.
19. Wash plate three times as described in step 10.
20. Incubate Elisa plate with 0.02 ug/well UB40 in TBSW+05% ethanolamine. Bring final volume to 150 ul/well. Incubate while shaking for 30 minutes.
21. Wash plate three times as described in step 10.
22. Incubate elisa plate with 1:10,000 diluted EIA grade Goat anti-mouse IgG conjugated horseradish peroxidase in TBSW+0.5% ethanolamine, pH 7.0. Bring final volume to 150 ul/well. Incubate while shaking for thirty minutes.
23. Wash plate as described in step 10.
24. Add 100 ul of ABTS/H202 solution to well. Incubate ten minutes while shaking.
25. Add 100 ul of 0.2M HCL for 0.1M HCL final to stop the colordevelopment reaction. Shake 1 minute at room temperature. Remove bubbles with slow stream of air and read the ELISA plate in an ELISA plate reader at 410 nm.

PC-3 = assay: Tumor xenograft growth inhibition, PC-3 (prostate); format: in vivo, human
Method: (§4) The ability of one of the compounds of the present invention, leflunomide (Compound 40), to inhibit ovarian, melanoma, prostate, lung and mammary tumor cell lines established as SC xenografts was examined. These studies were conducted using doses ranging from 12 to 20 mg/kg/day.
as §1, §2, §3

A375 = assay: Tumor xenograft growth inhibition, A375 (melanoma); format: in vivo, human; conditions: for % Inhibition (day): day 31
Method: as §4, §1, §2, §3

PA-1 = assay: Tumor xenograft growth inhibition, PA-1 (ovarian); format: in vivo, human
Method: as §4, §1
Animals. Female athymic mice (BALB/c, nu/nu), BALB/c mice, Wistar rats and Fisher 344 rats were obtained from Simonsen Laboratories (Gilroy, Calif.). Female A/I mice were obtained from Jackson Laboratory (Bar Harbor, Me.). DA rats were obtained from B&K Universal, Inc. (Fremont, Calif.). Athymic R/Nu rats, DBA/2N mice, and BALB/c mice were obtained from Harlan Sprague Dawley (Indianapolis, Ind.). […]
Subcutaneous Xenograft Model. […] Tumor growth was measured over 3 to 6 weeks using venier calipers tumor volumes were calculated as a product of length x width x height unless otherwise indicated. P values were calculated using the Students' t-test. su101 in 50-100 uL excipient (dimethylsulfoxide, PBTE, PBTE6C:D5W, or PBTE:D5W) was delivered by IP injection at concentrations indicated in the Figure legends.

[1] = test system: VEGF-induced "reddening" response and subsequent swelling (FLK-1 receptor); assay: In vivo VEGF pellet model; design: species or system nude mice (Balb/C athymic nu/nu); conditions: scored at 24 hours and 48 hours; drug in methylcellulose disc near VEGF pellet
Source text: In this model, VEGF is packaged into a time-release pellet and implanted subcutaneously on the abdomen of nude mice to induce a `reddening` response and subsequent swelling around the pellet. Potential FLK-1 inhibitors may then be implanted in methylcellulose near the VEGF pellet ito determine whether such inhibitor may be used to inhibit the "reddening" response and subsequent swelling.
1) VEGF--human recombinant lyophilized product is commercially may be obtained from Peprotech, Inc., Princeton Business Park, G2; P.O. box 275, Rocky Hill, N.J. 08553.
2) VEGF packaged into 21 day release pellets were obtained from Innovative Research of America, using patented matrix driven delivery system. Pellets were packaged at […], 0.21, or 2.1 μg VEGF/pellet. These doses approximate 10 and 100 ng/day release of VEGF. (Innovative Research of America, 3361 Executive Parkway, P.O. box 2746, Toledo, Ohio 43606)
Protocol. The following protocol was then followed to conduct the VEGF pellet model:
1) VEGF, purchased from Peprotech, was sent to Innovative Research for Custom Pellet preparation;
2) Methylcellulose prepared at 1.5% (w/v) in sterile water;
3) Drugs solublized in methanol (usual concentration range=10 to 20 mg/ml);
4) Place sterile parafilm in sterile 10 cm plates; […]
9) Mice were scored at 24 hours and 48 hours for reddening and swelling response. […]

SMILES | inhibition, CALU-6 (Calu-6; 20 mg/kg/day) [%] | inhibition of the growth of human lung (Calu-6) (Calu-6; in words) | % Inhibition (day) (Calu-6; nu/nu, 20 mg/kg/day, day 28, P < 0.0001) [%] | IC50 (FLK-1 receptor) [µM] | % Inhibition (day) (PC-3; SCID (day 15), 12 mg/kg/day, day 36, P < 0.001) [%] | inhibition of the growth of human prostate (PC-3) (PC-3; in words) | % Inhibition (day) (PC-3; nu/nu, 20 mg/kg/day, day 45, P < 0.01) [%] | % Inhibition (day) (A375; SCID (day 9), 15 mg/kg/day, P < 0.002) [%] | inhibition of the growth of human melanoma (A375) (A375; in words) | % Inhibition (day) (A375; nu/nu, 20 mg/kg/day, P < 0.03) [%] | inhibition of the growth of human ovarian (PA-1) (PA-1; in words) | % Inhibition (day) (PA-1; nu/nu, 20 mg/kg/day, day 36, P < 0.04) [%] | inhibition of the "reddening" response and subsequent swelling [1]
Cc1oncc1C(=O)Nc1ccc(C(F)(F)F)cc1 [Compound 40, leflunomide] | 63.9 | effectively inhibited the growth | 64 | 54 | 47 | effectively inhibited the growth | 71 | 53 | effectively inhibited the growth | 53 | effectively inhibited the growth | 53 | –
CC(C)c1cc(/C=C(\C#N)C(=O)NCCCc2ccccc2)cc(C(C)C)c1O [Compound 5] | – | – | – | 0.7 | – | – | – | – | – | – | – | – | inhibited the "reddening" response and subsequent swelling
COc1cc2ncnc(Nc3ccc(I)cc3)c2cc1OC [Compound 15, 4-(4-iodophenylamino)-6,7-dimethoxy quinazoline] | – | – | – | – | – | – | – | – | – | – | – | – | inhibited the "reddening" response and subsequent swelling

Source: US5763441A, “Compounds for the treatment of disorders related to vasculogenesis and/or angiogenesis” (Sugen, Inc., priority 1995, dated 1998)
